Experiment [1] has as its target CB1 (Rattus norvegicus, UniProt P20272). Nature of the experiment: CB1 receptor binding affinity (Ki). The protocol: Some disclosed compounds were tested for CB1 and CB2 receptor binding affinity (Tables 1, 2, 3, 4, 5, 6). As used herein “binding affinity” is represented by the Ki value. The Ki value is the affinity constant and describes the affinity of the compound for the receptor. […] A detailed description of the methods used to test “binding affinity” of compounds is given in Makriyannis, et al., US 2007, 0135388 and in Papahatjis, et al. J. Med. Chem. (2007) 4048, the content of each of which is hereby incorporated by reference.

In experiment [2] the target is CB2 receptor (UniProt P47936). Nature of the experiment: CB2 receptor binding affinity (Ki). As to conditions: read-out: CB2 receptor Ki. The protocol:
Some disclosed compounds were tested for CB1 and CB2 receptor binding affinity (Tables 1, 2, 3, 4, 5, 6). As used herein “binding affinity” is represented by the Ki value. The Ki value is the affinity constant and describes the affinity of the compound for the receptor. The lower the Ki value, the higher the affinity of the compound for the receptor. A detailed description of the methods used to test “binding affinity” of compounds is given in Makriyannis, et al., US 2007, 0135388 and in Papahatjis, et al. J. Med. Chem. (2007) 4048, the content of each of which is hereby incorporated by reference.

The values below come from patent US9517989B2, “2-cycloalkyl resorcinol cannabinergic ligands” (priority 2012, dated 2016).

Read-outs that look alike come from different tables or passages of the source. A value given as a limit tells only on which side of the number the result lay.

CB1, sequence (P20272 whole entry): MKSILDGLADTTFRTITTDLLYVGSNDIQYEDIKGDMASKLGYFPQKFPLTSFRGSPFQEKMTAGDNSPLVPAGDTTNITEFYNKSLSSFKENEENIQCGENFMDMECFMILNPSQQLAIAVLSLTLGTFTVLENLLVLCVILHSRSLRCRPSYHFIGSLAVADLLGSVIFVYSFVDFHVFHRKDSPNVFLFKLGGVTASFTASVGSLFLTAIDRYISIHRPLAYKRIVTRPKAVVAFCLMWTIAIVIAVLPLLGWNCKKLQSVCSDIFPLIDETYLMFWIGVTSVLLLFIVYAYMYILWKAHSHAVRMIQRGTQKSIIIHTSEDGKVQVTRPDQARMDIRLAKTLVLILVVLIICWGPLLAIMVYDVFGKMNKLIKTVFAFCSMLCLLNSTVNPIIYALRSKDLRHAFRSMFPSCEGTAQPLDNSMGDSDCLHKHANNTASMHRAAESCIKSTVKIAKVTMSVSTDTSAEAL

The term Ki denotes the equilibrium dissociation constant of an inhibitor or competing ligand from its target. In the case of “2-[(1S,6S)-3-(Hydroxymethyl)-6-(1-methylethenyl)-2-cyclohexen-1-yl]-5-[1-(1,2-cis-hexen-1-yl)-cyclopent-1-yl]resorcinol [Compound 4.5]”, the Ki in experiment [1] (read-out: CB1 receptor Ki) was determined as 29 nM; in experiment [2], 2.7 nM.
In the case of `C=C(C)[C@H]1CCC(C)=C[C@@H]1c1c(O)cc(CCCCC)cc1O` [(+)-CBD, Cannabidiol, reference compound], in experiment [2], the Ki is over 200 nM.
Consider `C=C(C)[C@@H]1CCC(C)=C[C@H]1c1c(O)cc(CCCCC)cc1O` [(−)-CBD, Cannabidiol, reference compound], for which the Ki in experiment [2] is over 200 nM.
For `C=C(C)[C@H]1CCC(COC(C)=O)=C[C@@H]1c1c(O)cc(C(C)(C)CCCCCC)cc1O` [Compound 3.2, 2-[(1S,6S)-3-(Acetoxymethyl)-6-(1-methylethenyl)-2-cyclohexen-1-yl]-5-(1,1-dimethylheptyl)resorcinol], the Ki in experiment [1] was 69 nM; in experiment [2], 62 nM.
For `C=C(C)[C@H]1CCC(COC(C)=O)=C[C@@H]1c1c(O)cc(C2(CCCCCC)CC2)cc1O` [Compound 3.3, 2-[(1S,6S)-3-(Acetoxymethyl)-6-(1-methylethenyl)-2-cyclohexen-1-yl]-5-(1-hexyl-cyclopropyl)resorcinol], in that order: 88 nM and 105 nM.
The corresponding values for `C=C(C)[C@H]1CCC(COC(C)=O)=C[C@@H]1c1c(O)cc(C2(CCCCCC)CCCC2)cc1O` [Compound 3.4, 2-[(1S,6S)-3-(Acetoxymethyl)-6-(1-methylethenyl)-2-cyclohexen-1-yl]-5-(1-hexyl-1-cyclopentyl)resorcinol] are 277 nM and 65 nM.
For `C=C(C)[C@H]1CCC(COC(C)=O)=C[C@@H]1c1c(O)cc(C2(/C=C\CCCC)CCCC2)cc1O` [Compound 3.5, 2-[(1S,6S)-3-(Acetoxymethyl)-6-(1-methylethenyl)-2-cyclohexen-1-yl]-5-[1-(1,2-cis-hexen-1-yl)-cyclopent-1-yl]resorcinol], in that order: 71 nM and 12 nM.
As for `C=C(C)[C@H]1CCC(COC(C)=O)=C[C@@H]1c1c(O)cc(C2(CCCCCC)SCCS2)cc1O` [Compound 3.6, 2-[(1S,6S)-3-(Acetoxymethyl)-6-(1-methylethenyl)-2-cyclohexen-1-yl]-5-(2-hexyl-1,3-dithiolane-2-yl)resorcinol], the Ki in experiment [1] (read-out: CB1 receptor Ki) was found to be 326 nM; in experiment [2], 97 nM.
With `C=C(C)[C@H]1CCC(COC(C)=O)=C[C@@H]1c1c(O)cc(C2(CCCCCBr)CCCC2)cc1O` [Compound 3.7, 2-[(1S,6S)-3-(Acetoxymethyl)-6-(1-methylethenyl)-2-cyclohexen-1-yl]-5-[(5-bromopentyl)cyclopentyl)resorcinol], the Ki came to 51 nM in experiment [1] and 25 nM in experiment [2].
The corresponding values for `C=C(C)[C@H]1CCC(COC(C)=O)=C[C@@H]1c1c(O)cc(C2(CCCCCBr)CCC2)cc1O` [Compound 3.8, 2-[(1S,6S)-3-(Acetoxymethyl)-6-(1-methylethenyl)-2-cyclohexen-1-yl]-5-[(5-bromopentyl)cyclobutyl)resorcinol] are 50 nM and 35 nM.
For `C=C(C)[C@H]1CCC(COC(C)=O)=C[C@@H]1c1c(O)cc(C23CC4CC(CC(C4)C2)C3)cc1O` [Compound 3.9, 2-[(1S,6S)-3-(Acetoxymethyl)-6-(1-methylethenyl)-2-cyclohexen-1-yl]-5-(1-adamantyl)resorcinol], in that order: 185 nM and 135 nM.
In the case of `C=C(C)[C@H]1CCC(COC(C)=O)=C[C@@H]1c1c(O)cc(C(C)(C)CCCBr)cc1O` [Compound 3.10, 2-[(1S,6S)-3-(Acetoxymethyl)-6-(1-methylethenyl)-2-cyclohexen-1-yl]-5-(5-bromo-2-methypentan-2-yl)resorcinol], the results for the Ki in experiment [1] and in experiment [2] were 620 nM and 14 nM, respectively.
